From patent US12723050B2, “Crystal form of compound and use thereof” (TENNOR THERAPEUTICS (SUZHOU) LIMITED, priority 2023, dated 2026)

Experiments:
Assay type in all cases: physicochemical
[1] = Hygroscopicity test (dynamic vapor sorption, DVS), with XRPD before and after; conditions: for moisture uptake (DVS): 25° C./80% RH
Procedure: (§1) DVS profiles were acquired on SMS (Surface Measurement Systems) DVS Intrinsic and DVS Intrinsic plus. The relative humidity at 25° C. was calibrated using the deliquescence points of LiCl, Mg(NO3)2, and KCl.

[2] = Solid stability evaluation (XRPD and HPLC) of samples left to stand open; conditions: for HPLC peak 6, RRT 1.00 (main peak): in %
Procedure: The crystal form A was left to stand open at 60° C. for 24 hours, and at 25° C./60% RH and 40° C./75% RH for 1 week. The physical and chemical stability of the samples was detected by XRPD and HPLC. The stability evaluation results are summarized in Table 4, the XRPD results are shown in FIG. 12, and the HPLC results are shown in Table 5 and FIG. 13.

[3] = Crystal form stability on drying or heating (XRPD)
Procedure: 40.05 g of the crude compound of formula (I) was weighed and mixed with ethanol of 5 folds by mass, and the mixture was stirred at 25° C. for 30 minutes. At this point, a visible solid precipitate was observed. The mixture was stirred for another 2-3 hours, followed by filtration. The wet cake was washed with 80 mL of ethanol. Three solvate crystal forms, C1, C2, and C3, with different structures were detected in the undried wet product of the compound of formula (I) formed in ethanol. Their XRPD results are shown in FIGS. 9A-9C, Table 2-1, Table 2-2, and Table 2-3.
Furthermore, the sample had 3 endothermic peaks at 85.6° C., 130.7° C., and 144.3° C. (peak temperatures). […] To further investigate the substantial TGA weight loss of the crystal form B sample, a heating experiment was performed on it. […] Due to the crystal form conversion upon sample heating, combined with the substantial TGA weight loss and the solvent residue indicated by the nuclear magnetic resonance results after heating, it can be inferred that crystal form B is a toluene solvate.
as §1

[4] = open, 60° C. 24 hours, 25° C./60% RH and 40° C./75% RH 1 week

For `CO[C@H]1/C=C/O[C@@]2(C)Oc3c(C)c(O)c4c(c3C2=O)C2=NC3(CCN(CCn5c([N+](=O)[O-])cnc5C)CC3)NC2=C(NC(=O)/C(C)=C\C=C\[C@H](C)[C@H](O)[C@@H](C)[C@@H](O)[C@@H](C)[C@H](OC(C)=O)[C@@H]1C)C4=O` [amorphous form], which “moisture uptake (DVS)” value [1] is on record?
The value was 5.941%.

Which results are given for `CO[C@H]1/C=C/O[C@@]2(C)Oc3c(C)c(O)c4c(c3C2=O)C2=NC3(CCN(CCn5c([N+](=O)[O-])cnc5C)CC3)NC2=C(NC(=O)/C(C)=C\C=C\[C@H](C)[C@H](O)[C@@H](C)[C@@H](O)[C@@H](C)[C@H](OC(C)=O)[C@@H]1C)C4=O` [crystal form A]?
moisture uptake (DVS) [1]: 2.880%; crystal form conversion, XRPD before and after the DVS test ([1]; before and after DVS test): no crystal form conversion; stability of the crystal form ([1]; judged from XRPD before and after DVS test): good stability; HPLC impurity peak 1, RRT 0.81 ([2]; 25° C./60% RH/Open/1 week): 0.18; HPLC impurity peak 2, RRT 0.83 ([2]; 25° C./60% RH/Open/1 week): 0.06; HPLC impurity peak 3, RRT 0.87 ([2]; 25° C./60% RH/Open/1 week): 0.05; HPLC impurity peak 4, RRT 0.91 ([2]; 25° C./60% RH/Open/1 week): 0.06; HPLC impurity peak 5, RRT 0.97 ([2]; 25° C./60% RH/Open/1 week): 0.19; HPLC peak 6, RRT 1.00 (main peak) ([2]; 25° C./60% RH/Open/1 week): 99.45; Change in crystal form ([2]; 25° C./60° C. RH, 1 week, open): No; HPLC purity ([2]; 25° C./60° C. RH, 1 week, open): 99.45 area %; Change in crystal form ([2]; 40° C./75% RH, 1 week, open): No; HPLC purity ([2]; 40° C./75% RH, 1 week, open): 99.29 area %; HPLC impurity peak 1, RRT 0.81 ([2]; 40° C./75% RH/Open/1 week): 0.38; HPLC impurity peak 2, RRT 0.83 ([2]; 40° C./75% RH/Open/1 week): 0.06; HPLC impurity peak 3, RRT 0.87 ([2]; 40° C./75% RH/Open/1 week): 0.05; HPLC impurity peak 4, RRT 0.91 ([2]; 40° C./75% RH/Open/1 week): 0.06; HPLC impurity peak 5, RRT 0.97 ([2]; 40° C./75% RH/Open/1 week): 0.16; HPLC peak 6, RRT 1.00 (main peak) ([2]; 40° C./75% RH/Open/1 week): 99.29; Change in crystal form ([2]; 60° C., 24 hours, open): No; HPLC purity ([2]; 60° C., 24 hours, open): 99.33 area %; HPLC impurity peak 1, RRT 0.81 ([2]; 60° C./open/24 hours): 0.30; HPLC impurity peak 2, RRT 0.83 ([2]; 60° C./open/24 hours): 0.07; HPLC impurity peak 3, RRT 0.87 ([2]; 60° C./open/24 hours): 0.06; HPLC impurity peak 4, RRT 0.91 ([2]; 60° C./open/24 hours): 0.07; HPLC impurity peak 5, RRT 0.97 ([2]; 60° C./open/24 hours): 0.17; HPLC peak 6, RRT 1.00 (main peak) ([2]; 60° C./open/24 hours): 99.33; HPLC impurity peak 1, RRT 0.81 ([2]; Starting sample): 0.29; HPLC impurity peak 2, RRT 0.83 ([2]; Starting sample): 0.07; HPLC impurity peak 3, RRT 0.87 ([2]; Starting sample): 0.08; HPLC impurity peak 4, RRT 0.91 ([2]; Starting sample): 0.07; HPLC impurity peak 5, RRT 0.97 ([2]; Starting sample): 0.17; HPLC purity ([2]; Starting sample): 99.32 area %; HPLC peak 6, RRT 1.00 (main peak) ([2]; Starting sample): 99.32; change in purity (HPLC) [2, 4]: no significant change in purity; crystal form conversion (XRPD) [2, 4]: no crystal form conversion

Which crystal form stability ([3]; after heating or drying, all converted to crystal form A) does the source give for `CO[C@H]1/C=C/O[C@@]2(C)Oc3c(C)c(O)c4c(c3C2=O)C2=NC3(CCN(CCn5c([N+](=O)[O-])cnc5C)CC3)NC2=C(NC(=O)/C(C)=C\C=C\[C@H](C)[C@H](O)[C@@H](C)[C@@H](O)[C@@H](C)[C@H](OC(C)=O)[C@@H]1C)C4=O` [crystal form B] here?
Its crystal form stability is “poor crystal form stability”.

And the “crystal form after air-drying (XRPD)” value ([3]; air-drying at room temperature for 24 hours)?
The value was “remained unchanged”.

What about the “crystal form after heating (XRPD)” value ([3]; heating to 115° C. and cooling to room temperature) of the same compound?
Its value is “remained unchanged”.

And the “crystal form after heating (XRPD)” value ([3]; heating to 140° C. and cooling to room temperature)?
Its value is “converted to crystal form A”.

Which “crystal form after drying (XRPD)” value ([3]; wet product from ethanol, after drying) does the source give for `CO[C@H]1/C=C/O[C@@]2(C)Oc3c(C)c(O)c4c(c3C2=O)C2=NC3(CCN(CCn5c([N+](=O)[O-])cnc5C)CC3)NC2=C(NC(=O)/C(C)=C\C=C\[C@H](C)[C@H](O)[C@@H](C)[C@@H](O)[C@@H](C)[C@H](OC(C)=O)[C@@H]1C)C4=O` [crystal form C1] here?
Its value is “converted to crystal form A”.
